Assay results published in patent publication US11802107B2, “Compounds and methods of use” (Signum Biosciences, Inc., priority 2017, dated 2023).
Values after ≈ are worked out from the molar mass of the structure shown.

Columns and labels:
P. acnes (ATCC 6919) [1] = test: Minimal inhibitory concentration (MIC) against P. acnes; assay type: cell-based, Propionibacterium acnes; details: Cutibacterium acnes, ATCC6919, 72 h, P. acnes ATCC 6919, 10^6 CFU/mL, read-out: MIC
Protocol: To determine minimal inhibitory concentration (MIC), reagents were dissolved in vehicle (5% v/v) and then added to bacteria suspension. P. acnes (ATCC® 6919TM) at 10^6 CFU/mL was incubated with test materials at the concentrations of two-fold serial dilution (0.25-500 μg/mL) and incubated for 72 hours (P. acnes).

DEFB4B (hBD2) = test: NHEK antimicrobial peptide gene expression, hBD2; assay type: cell-based, human; details: 10 μM, 24 hours, qPCR, normalized to GAPDH
Protocol: (§1) Normal human epidermal keratinocytes (NHEKs) from neonatal donors were obtained from Thermo-Fisher (Cat No. C-001-5C). Cells were cultured in 6-well plates for 24 hours before treatments with EpiLife media (Cat No. MEPI500CA) supplemented with keratinocytes growth supplement (Cat No. 50015). On Day 2, media was removed and incubated with test materials (10 μM) for 24 hours at 37° C. and 5% CO2. On Day 3, total RNA was extracted from cells using the RNAqueous® kit (Ambion®; Cat No. 1912) and cDNA was obtained using the High Capacity RNA-to-cDNA kit (Applied Biosystems®; Cat No. 4387406). Quantitative PCR (qPCR) was performed using the TaqMan® Fast Advanced Master Mix (Applied Biosystems®; Cat No. 4444556) and specific TaqMan®-probes human gene primers DEFB4B (hBD2), DEFB103 (hBD3), HCAP18 and GAPDH to calculate the relative gene fold expression change per treatment. Gene expression analysis was performed using the comparative Ct method (also known as the 2-[delta][delta]Ct) approach by comparing the Ct values of the treated samples with the untreated samples and normalized to GAPDH gene expression as endogenous housekeeping gene. Results were represented as fold-expression/untreated cells.

IL-17 = test: P. acnes-induced IL-17 protein on human PBMCs (ELISA); assay type: cell-based; details: PBMC, PBMCs + live P. acnes 1:1, test material 30 PM, 24 hours
Protocol: (§2) Cryopreserved human Peripheral Blood Mononuclear cells (PBMCs) from healthy adult donors were obtained from Zen Bio, Inc (Cat No. SER-PBMC-F). Cells were cultured in 12-well plates with lymphocyte media (Cat No. LYMPH-1) and incubated with test materials ([…]) and live P. acnes (ATCC® 6919TM) at 1:1 PBMC: P. acnes bacteria ratio for 24 hours at 37° C. and 5% CO2. After incubation, cell media supernatants were harvested and used to measure pro-inflammatory cytokine levels (IL-8, TNF-α, IL-1b, IL-17) using ELISA kits (BD Biosciences® #557966, #555212, #555244; R&D Systems® #DY317). Total RNA was extracted from cells using the RNAqueous® kit (Ambion®; Cat No. 1912) and cDNA was obtained using the High Capacity RNA-to-cDNA kit (Applied Biosystems®; Cat No. 4387406). Quantitative PCR (qPCR) was performed using the TaqMan® Fast Advanced Master Mix (Applied Biosystems®; Cat No. 4444556) and specific TaqMan®-probes human gene primers CXCL8 (IL-8), IL1B (IL-1b), TNF (TNF-α), IL17A (IL-17A) and GAPDH to calculate the relative gene fold expression change per treatment. Gene expression analysis was performed using the comparative Ct method (also known as the 2-[delta][delta]Ct) approach by comparing the Ct values of P. acnes-only treated cells with the untreated samples and normalized to GAPDH gene expression as endogenous housekeeping gene.

DEFB103 (hBD3) = test: NHEK antimicrobial peptide gene expression, hBD3; assay type: cell-based, human; details: 10 μM, 24 hours, qPCR, normalized to GAPDH
Protocol: as §1

[2] = tested on: P. acnes (ATCC 6919) biofilms; test: P. acnes biofilm eradication (MBEC), crystal violet; assay type: cell-based, Propionibacterium acnes; details: 24 hours, ≥80% eradication vs vehicle
Protocol: P. acnes (ATCC® 6919™) was cultured as described above. Bacteria biofilms were established by seeding P. acnes cultures in 96-well plates and incubating for 24 hours without agitation. Later, biofilms were incubated with test materials for 24 hours. Remaining biofilms were washed and stained with crystal violet. […] The absorbance was measured at 595 nm in a microplate reader. […] Results from disk diffusion susceptibility testing (Kirby-Bauer Method) after 72 hours incubation were also obtained.

HCAP18 = test: NHEK antimicrobial peptide gene expression, hCAP18; assay type: cell-based, human; details: 10 μM, 24 hours, qPCR, normalized to GAPDH
Protocol: as §1

P. acnes (ATCC 6919) [3] = test: Minimal bactericidal concentration (MBC) against P. acnes; assay type: cell-based, Propionibacterium acnes; details: Cutibacterium acnes, ATCC6919; P. acnes 10^7 CFU/mL, in PBS, anaerobic conditions
IL-8 [4] = test: P. acnes-induced IL-8 protein on human PBMCs (ELISA); assay type: cell-based; details: PBMCs + live P. acnes 1:1, test material 30 PM, 24 hours
Protocol: as §2

TNF-α = test: P. acnes-induced TNF-α protein on human PBMCs (ELISA); assay type: cell-based; details: PBMCs + live P. acnes 1:1, test material 30 PM, 24 hours
Protocol: as §2

IL-1b = test: P. acnes-induced IL-1b protein on human PBMCs (ELISA); assay type: cell-based; details: PBMC, PBMCs + live P. acnes 1:1, test material 30 PM, 24 hours
Protocol: as §2

IL-5 = test: T-cell receptor (anti-CD3/CD28)-induced IL-5 on PBMCs; assay type: cell-based; details: Homo sapiens, PBMC, anti-CD3/CD28 beads, 24 hours, ELISA, read-out: TCR-PBMCs IL-5 Protein IC50
Protocol: (§3) Cryopreserved human Peripheral Blood Mononuclear cells (PBMCs) from healthy adult donors were obtained from Zen Bio, Inc (Cat No. SER-PBMC-F). Cells were cultured in 96-well plates with lymphocyte media (Cat No. LYMPH-1) and were pre-treated with test materials (≤100 μM) for 2 hours and later co-treated with test materials and anti-CD3/CD28 beads (Thermo-Fisher; Cat No. 11131D) at 1:0.4 PBMC:bead ratio for 24 hours at 37° C. and 5% CO2. After incubation, cell media supernatants were harvested and used to measure cytokine levels (IL-4, IL-5, IL-10) using ELISA kits (BD Biosciences® #555194, #555157; R&D Systems® #DY317). Results were represented as percent of inhibition relative to untreated and anti-CD3/CD28 beads-only treated cells. IC50 values were determined by non-linear regression analysis using the four-parameter logistic equation.

Balb/C mice = test: Oxazolone-induced delayed-type hypersensitivity (DTH) in vivo model; details: Mus musculus, topical to ears @ 3% w/v, 24 hours, read-out: Edema % inhibition
Protocol: Inbred male Balb/C mice were purchased from Hilltop Lab Animals (Scottdale, PA) and were used between 8 and 10 weeks of age. Mice backs were shaved and 100 μl of 3% v/v Oxazolone (Sigma Aldrich, Cat No. E0753) in acetone/olive oil (4:1) was applied to dorsal skin for sensitization. On Day 7, ears were challenged with 0.5% v/v Oxazolone and 30 minutes after challenge, test materials at 3% w/v were applied to ears (10 μl applied both to the dorsal and ventral surfaces of the mouse ear using a solvent pipette) and 24 hours later, skin thickness (edema) was measured. A 6-mm punch biopsy was obtained from each ear, snap frozen in liquid nitrogen. Ear skin biopsy punches were pulverized using FastPrep®-24 Biopulverizer (MP Biomedical, CatNo. 116004500) and Lysing Matrix A tubes (CatNo. 16910050). Protein extracts were obtained using 500 μL/tissue of cold T-PER buffer (ThermoFisher, CatNo. 78510) with Protease inhibitors (Sigma-Aldich, CatNo. 58820-20TAB). Soluble protein fractions were used to measure cytokine levels (IL-4) using ELISA kit (BD Biosciences® #555232). Results were represented as percent of inhibition relative to unsensitized and sensitized-only treated animals. Vehicle for presently disclosed compounds was 60:40 H2O:EtOH and 1:1 Acetone:EtOH for AN2718. (n=5-15 animals per treatment group).
Compound C was further analyzed at various dosages against 0.4 mg/ear of […] by the above protocol, data representing the average±S.E. of cumulative data from three independent experiments (n=12-15 mice per group) is shown below: […]

IL-10 = test: T-cell receptor (anti-CD3/CD28)-induced IL-10 on PBMCs; assay type: cell-based; details: Homo sapiens, PBMC, anti-CD3/CD28 beads, 24 hours, ELISA, read-out: TCR-PBMCs IL-10 Protein IC50
Protocol: as §3

IL-4 = test: T-cell receptor (anti-CD3/CD28)-induced IL-4 on PBMCs; assay type: cell-based; details: Homo sapiens, PBMC, anti-CD3/CD28 beads, 24 hours, ELISA, read-out: TCR-PBMCs IL-4 Protein IC50
Protocol: as §3

TNF (TNF-α) = test: P. acnes-induced TNF-α gene on human PBMCs (qPCR); assay type: cell-based; details: PBMC, PBMCs + live P. acnes 1:1, test material 30 PM, 24 hours, read-out: TNFa-Gene % inhibition
Protocol: as §2

CXCL8 (IL-8) = test: P. acnes-induced IL-8 gene on human PBMCs (qPCR); assay type: cell-based; details: PBMC, PBMCs + live P. acnes 1:1, test material 30 PM, 24 hours
Protocol: as §2

IL17A (IL-17A) = test: P. acnes-induced IL-17 gene on human PBMCs (qPCR); assay type: cell-based; details: PBMC, PBMCs + live P. acnes 1:1, test material 30 PM, 24 hours
Protocol: as §2

IL1B (IL-1b) = test: P. acnes-induced IL-1b gene on human PBMCs (qPCR); assay type: cell-based; details: PBMC, PBMCs + live P. acnes 1:1, test material 30 PM, 24 hours
Protocol: as §2

IL-8 [5] = test: P. acnes-induced IL-8 on human NHEKs; assay type: cell-based; details: Homo sapiens; NHEK, live P. acnes 10^7 CFU, 24 hours, ELISA; read-out: P. acnes-NHEK IL-8 Protein IC50
Protocol: Normal human epidermal keratinocytes (NHEKs) from neonatal donors were obtained from Thermo-Fisher (Cat No. C-001-5C). Cells were cultured in 96-well plates for 24 hours with EpiLife media (Cat No. MEPI500CA) supplemented with keratinocytes growth supplement (Cat No. S0015). On Day 2, media was removed and replaced with supplement-depleted medium for 24 hours. On Day 3, media was removed and cells were pre-treated with test materials ([…]) for 2 hours and later co-treated with test materials and live P. acnes (ATCC® 6919TM) at 10^7 CFU for 24 hours at 37° C. and 5% CO2. After incubation, cell media supernatants were harvested and used to measure pro-inflammatory cytokine levels (IL-8) using ELISA kits (BD Biosciences® #555244). Results were represented as percent of inhibition relative to untreated and P. acnes-only treated cells. IC50 values were determined by non-linear regression analysis using the four-parameter logistic equation.

Structure (SMILES)	MIC (P. acnes (ATCC 6919) [1])	MBC (P. acnes (ATCC 6919) [3])	IC50 (IL-5)	inhibition in vivo at 3 % strength (Balb/C mice)	IC50 (IL-10)	IC50 (IL-4)	inhibition at 30 pM (TNF (TNF-α))	inhibition at 30 pM (CXCL8 (IL-8))	inhibition at 30 pM (IL17A (IL-17A))	inhibition at 30 pM (IL1B (IL-1b))	other results
O=C(O)CCCCCCCC(=O)O [Azelaic Acid, reference compound]	1000 mg/L (≈ 5310 µM)	> 2000 mg/L	–	–	–	–	–	–	–	–	hBD2 gene expression (DEFB4B (hBD2)): 1.8 Fold-expression/untreated cells; inhibition at 30 pM (IL-17): 0%; hBD3 gene expression (DEFB103 (hBD3)): 0.9 Fold-expression/untreated cells; MBEC [2]: 8000 μg/mL and (42503) μM; hCAP18 gene expression (HCAP18): 1.1 Fold-expression/untreated cells; IL-8 Protein % inhibition (IL-8 [4]): 43%; TNFa-Protein % inhibition (TNF-α): 0%; inhibition at 30 pM (IL-1b): 66%
CSCCC(NC(C)=O)C(=O)NC(CSC/C=C(\C)CCCC(C)CCCC(C)CCCC(C)C)C(=O)O (stereo not drawn) [Compound B]	24 mg/L (≈ 41.9 µM)	–	50 µM	48%	46 µM	52 µM	–	–	–	–	–
C/C(=C\CSCC(NC(=O)CCCCCCCCC(=O)O)C(=O)O)CCCC(C)CCCC(C)CCCC(C)C (stereo not drawn) [D]	> 250 mg/L	–	> 100 µM	53%	100 µM	> 100 µM	–	–	–	–	–
CCN(CC(=O)O)C(=O)NC(CSC/C=C(\C)CCCC(C)CCCC(C)CCCC(C)C)C(=O)O (stereo not drawn) [I]	> 16 mg/L	–	–	36%	–	–	0%	52%	7%	86%	–
CC(=O)NC(CC(=O)NC(CSC/C=C(\C)CCCC(C)CCCC(C)CCCC(C)C)C(=O)O)C(=O)O (stereo not drawn) [Q]	125 mg/L (≈ 224 µM)	–	–	–	–	–	0%	14%	72%	59%	–
C/C(=C\CSCC(NC(=O)c1cc(O)c(O)c(O)c1)C(=O)O)CCCC(C)CCCC(C)CCCC(C)C (stereo not drawn) [V]	> 4 mg/L	> 25 mg/L	–	5%	–	–	0%	46%	0%	83%	IC50 (IL-8 [5]): 0.003 µM
